Assays:
C57BL/6 mice = assay: In vivo delivery of luciferase mRNA lipid nanoparticles in mice (bioluminescence imaging); conditions: intravenous, single dose 0.5 mg/kg luciferase mRNA
Procedure, shortened: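 Female C57BL/6 mice, 6-8 weeks old, received luciferase mRNA lipid nanoparticles as a single intravenous dose of 0.5 mg/kg mRNA. At 6 h, D-luciferin given intraperitoneally; 10 min later, mice were imaged under isoflurane anaesthesia. Values are group mean fluorescence intensity and total photon count.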

[1] = Particle size and PDI of lipid nanoparticles by dynamic light scattering; assay type: physicochemical; conditions: lipid nanoparticles with luciferase mRNA; ionizable lipid/cholesterol/DSPC/DMG-PEG2000 50/38.5/10/1.5 mol%
Procedure, shortened: (§1)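 LNPs of ionizable lipid/cholesterol/phospholipid/PEG-lipid (50/38.5/10/1.5 mol%, N/P 6) were formed by microfluidic mixing with mRNA in pH 4.5 acetate, then buffer-exchanged by ultrafiltration. Size and PDI were measured by DLS. Encapsulation came from RiboGreen fluorescence (485/528 nm) in TE pH 7.5, with and without 0.5% Triton at 37 °C for 30 min.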

[2] = Encapsulation efficiency of lipid nanoparticles (Quant-it RiboGreen RNA Assay); assay type: physicochemical; conditions: lipid nanoparticles with luciferase mRNA
Procedure, shortened: as §1

Row | Structure (SMILES) | Total photon count in vivo at 6 hours after administration (Total Flux) (C57BL/6 mice) | Particle size (nm) [1] [nm] | Particle-size distribution (PDI) [1] | Encapsulation efficiency (%) [2] [%]
1 | CCCCCCCC(CCCCCCC)COC(=O)CCCCCCCN(CCO)CCCCCC(C)(C)COC(=O)CC(CCCCCCC)CCCCCCC [65b] | 1.25E+11 | 80.60 | 0.16 | 97.75
2 | CCCCCCCCCCOC(=O)CCCCC(C)(C)CCN(CCCO)CCCCCCCC(=O)OC(CCCCCCCCC)CCCCCCCCC [66a] | 9.31E+10 | 105.77 | 0.11 | 92.88
3 | CCCCCCCCCC(CCCCCCCCC)OC(=O)CCCCCCCN(CCO)CCCCCC(C)(C)COC(=O)CCCC(CCCCCC)CCCCCC [66b] | 4.35E+10 | 81.83 | 0.17 | 97.18
4 | CCCCCCCCCCOC(=O)CCCCC(C)(C)CCN(CCCCO)CCCCCCCC(=O)OC(CCCCCCCCC)CCCCCCCCC [67a] | 6.07E+10 | 111.33 | 0.06 | 91.57
5 | CCCCCCCCCC(=O)OCC(C)(C)CCCCCN(CCO)CCCCCCC(=O)OCC(CCCCCCCC)CCCCCCCC [67b] | 1.71E+11 | 88.28 | 0.23 | 96.30
6 | CCCCCCCCCCCOC(=O)CCCCC(C)(C)CCN(CCCCO)CCCCCCCC(=O)OC(CCCCCCCCCC)CCCCCCCCCC [68a] | 7.55E+10 | 103.93 | 0.04 | 94.47
7 | CCCCCCCCCC(=O)OCC(C)(C)CCCCCN(CCO)CCCCCCC(=O)OCCC(CCCCCCC)CCCCCCC [68b] | 2.88E+11 | 88.33 | 0.20 | 96.31
8 | CCCCCCCCCOC(=O)CCCCC(C)(C)CCN(CCO)CCCCCC(=O)OCC(CCCCCCCCC)CCCCCCCCC [69a] | 7.41E+10 | 107.20 | 0.34 | 96.65
9 | CCCCCCCCCC(=O)OCC(C)(C)CCCCCN(CCCCO)CCCCCCC(=O)OCC(CCCCCCCC)CCCCCCCC [69b] | 1.52E+11 | 99.05 | 0.13 | 93.85
10 | CCCCCCCCCOC(=O)CCCCC(C)(C)CCN(CCO)CCCCCCC(=O)OCC(CCCCCCCC)CCCCCCCC [70a] | 9.33E+10 | 86.08 | 0.15 | 96.69
11 | CCCCCCCCCC(=O)OCC(C)(C)CCCCCN(CCCCO)CCCCCCC(=O)OCCC(CCCCCCC)CCCCCCC [70b] | 1.15E+11 | 96.20 | 0.09 | 96.91
12 | CCCCCCCCCC(=O)OCCCC(C)(C)CCCN(CCO)CCCCCCCC(=O)OCCC(CCCCCC)CCCCCC [71b] | 1.70E+11 | 95.59 | 0.17 | 95.95
